The conditions of this data set: rat, in vivo, sc.

heparin: the bioavailability is reported as 48-60%.

These data come from US5084564A, “Production of oligosaccharide fractions having antithrombotic properties by controlled chemical depolymerization of heparin” (Bioiberica, S.A., priority 1988, dated 1992).
